In PMC10489073 (Molecules, 2023):

How the values were obtained:
MM1.S cells [1] = test: Cell apoptosis assay (Annexin V-FITC/PI flow cytometry); format: cell-based; details: 48 h
Description: For the cell apoptosis assay, MM1.S cells were plated in 12-well plates with a density of 6 × 10^5 cells per well and treated with BC-05 (1, 2, and 4 μM), ixazomib (10 nM) or a vehicle (0.5% DMSO) for 48 h after 12 h fixation. Then, cells were harvested, washed with a cold PBS buffer, and resuspended in 500 μL of an annexin V binding buffer. After being stained with 5 μL of Annexin V-FITC and 5 μL of propidium iodide, the cells were detected by a flow cytometer (Beckman Coulter Inc., Sharon Hill, PA, USA).

MM1.S cells [2] = test: Cell cycle assay (PI flow cytometry); format: cell-based; details: MM1.S, 1, 2 and 4 µM, 48 h
Description: For the cell cycle assay, MM1.S cells were plated in 6-well plates with a density of 2.5 × 10^6 cells per well. A total of 12 h later, BC-05 (1, 2, and 4 μM), ixazomib (10 nM), or a vehicle (0.5% DMSO) was added, and the mixture was incubated for 48 h. Subsequently, cells were harvested, washed with cold PBS, and fixed in 75% cold ethanol at −20 °C overnight. After washing off the ethanol, fixed cells were treated with RNase A, dyed with propidium iodide solution (20 μg/mL), and incubated in the dark at 37 °C for 30 min. The final assay was analyzed using a Beckman flow cytometer.

[3] = test system: cleaved caspase-3 in MM1.S cells; test: Western blot analysis, caspase-3 cleavage; format: cell-based; details: MM1.S, 1, 2 and 4 µM, 24 h
Description: MM1.S cells were seeded in 6-well plates with a density of 2.5 × 10^6 cells/well. Then, the cells were cultured with 1, 2, and 4 μM BC-05 and 10 nM ixazomib, respectively. After incubation for 24 h, the cells were collected, and total proteins were extracted via RIPA containing a 2% protease inhibitor cocktail. Cell lysates were centrifugated at 4 °C, 12,000 rpm for 15 min, and the supernatants were collected and quantified with BCA assay. After being boiled at 100 °C for 10 min in a NuPAGE lithium dodecyl sulfate (LDS) sample buffer (5X), equivalent samples were separated by 12% sodium dodecyl-sulfate polyacrylamide gel electrophoresis at 120 V, transferred to immune-blot poly(vinylidene fluoride) (PVDF) membranes (Merck Millipore, Burlington, MA, USA) at 4 °C and then blocked by 5% non-fat milk in TBST for an hour. The membranes were incubated overnight at 4 °C with certain primary antibodies, which were deliquates by an antibody dilution buffer (Boster Bio, Pleasanton, CA, USA) and then washed with TBST. After incubating with a horseradish (HRP)-conjugated secondary antibody for 1 h at room temperature, the membranes were washed five times with TBST for 5 min. The images were visualized on the Tanon-5200 Chemiluminescent Imaging System via luminol reaction. […]

In vivo pharmacokinetics = details: SD rats; for AUC(0-inf): SD
Description: The animal experiments were conducted under the guidelines of the “Regulations for the Administration of Affairs Concerning Experimental Animals” (revised 2017, State Council No. 676). The pharmacokinetic properties (PK) were performed in SD rats, and the procedures conducted were in accordance with institutional guidelines. Male SD rats (weighting 200 ± 20 g) fasted for 12 h and were divided into two groups, three in each group: oral administration of BC-05 (10 mg/kg) and intravenous administration of BC-05 (10 mg/kg). A total of 300 μL of a blood sample was collected through retro-orbital plexus from the rats in each group at 0 h, 0.033 h, 0.167 h, 0.5 h, 0.75 h, l h, 2 h, 4 h, 6 h, 8 h, 10 h, and 24 h. Plasma samples were placed in microcentrifuge tubes containing Li-heparin to avoid coagulant, separated by centrifugation at 12,000 rpm for 10 min, and stored at −80 °C until sample analysis. After the precipitation of proteins, samples were centrifuged at 15,000 rpm for 10 min, and the supernatant was reserved for HPLC-MS/MS analysis.

[4] = test system: macrophage phagocytic activity (MPA) of the reticular endothelial system; test: Macrophage phagocytosis by carbon clearance test; format: in vivo, Kunming mice; details: twice a week for two weeks; for Carbon Clearance Index (K): Ctrl 0.057 ± 0.0061; for Phagocytosis Index (α): Ctrl 5.36 ± 0.19
Description: The animal experiments were conducted under the guidelines of the “Regulations for the Administration of Affairs Concerning Experimental Animals” (revised 2017, State Council No. 676). Kunming mice were randomly divided into control groups and treatment groups. After oral administration of test compounds twice a week for two weeks, the mice were injected with carbon ink suspension (Indian Ink, Camel) (100 μL/10 g of body weight) via the tail vein. Two and ten minutes after the injection of carbon suspension, the blood samples were collected from a retro-orbital vein. A total of 25 μL of a blood sample was directly added into 2 mL of 0.1% sodium carbonate solution. The absorbance of the sample was measured at 600 nm using a UV-visible spectrophotometer. The K value was calculated by the formula Log (OD2) − Log (OD10)/(T2 − T1), where OD2 and OD10 were the absorbance of blood at 2 and 10 min, respectively; T2 is the last time point of blood collection; T1 is the first time point of blood collection. The α value was calculated by the formula (k^1/3 × body weight)/(liver weight + spleen weight).

[5] = male, rat, plasma, iv, i.v. at 10 mg/kg, n = 3
[6] = male, rat, plasma, oral at 10 mg/kg, n = 3

## CC(C)C[C@H](NC(=O)[C@@H](O)[C@H](N)Cc1ccccc1)B1OC(=O)C(CC(=O)O)(CC(=O)O)O1 [BC-05, 2,2′-(2-((R)-1-((2S,3R)-3-amino-2-hydroxy-4-phenylbutanamido)-3-methylbutyl)-5-oxo-1,3,2-dioxaborolane-4,4-diyl)diacetic acid]
MM1.S cells [1]; 1 µM
  cell apoptosis: 12.4%
MM1.S cells [1]; 2 µM
  cell apoptosis: 73.1%
MM1.S cells [1]; 4 µM
  cell apoptosis: 88.0%
MM1.S cells [2]
  cell cycle arrest: blocks MM1.S cells in the Sub-G1 phase
[3]
  Caspase-3 cleavage (Western blot): obvious
In vivo pharmacokinetics; oral at 10 mg/kg, n = 3
  CL: 128 ± 11 mL/min/kg
In vivo pharmacokinetics; oral at 10 mg/kg, n = 3, 10 mg/kg
  AUC0–∞: 1307.71 ± 116.74 μg/L∗h
In vivo pharmacokinetics; male, rat, plasma, iv, 10 mg/kg, i.v. at 10 mg/kg, n = 3
  AUC(0-inf): 5150 ± 482 ng·h/mL
In vivo pharmacokinetics; male, rat, plasma, po, 10 mg/kg, oral at 10 mg/kg, n = 3
  AUC(0-inf): 1310 ng·h/mL
In vivo pharmacokinetics; [5]
  Cmax: 10500 ng/mL
  Tmax: 0.03 h
  clearance: 32.5 mL/min/kg
  half-life: 1.72 ± 0.67 h
In vivo pharmacokinetics; male, rat, plasma, oral at 10 mg/kg vs i.v. 10 mg/kg, read-out: F (oral bioavailability)
  bioavailability: 24.9 ± 4.32%
In vivo pharmacokinetics; [6]
  Cmax: 373 ± 49.6 ng/mL
  Tmax: 2 h
  half-life: 2.35 ± 1.23 h
[4]; 0.006 mmol/kg oral
  Carbon Clearance Index (K): 0.066 ± 0.0077
  Phagocytosis Index (α): 6.60 ± 0.26
[4]; 0.008 mmol/kg oral
  Carbon Clearance Index (K): 0.076 ± 0.0016
  Phagocytosis Index (α): 6.61 ± 0.05
